Assay results from US20090227606A1, “Methods for Preventing or Treating Acute and Chronic Pain” (priority 2006, published 2009).
Entries after “also recorded” stand apart in the source; their conditions may differ.

Assays:
GLT-1 = assay: eGFP-GLT-1-positive puncta in mouse spinal cord dorsal horn; type: in vivo
Method: With these in vivo data collected, further experiments were performed in the transgenic mice to more clearly define the effects of propentofylline treatment on GLT-1 and GLAST in the spinal cord. As discussed above, following in vivo testing, mice were transcardially perfused and tissue was fixed with paraformaldehyde. Lumbar spinal cord sections were identified and post-fixed in paraformaldehyde. After one week in sucrose to prevent freeze fracture, spinal cord segments were frozen in dry ice, mounted and prepared with cryostat sectioning. Sections were then subjected to immunohistochemical analysis. […] In order to quantitate the relative number of eGFP (marker for GLT-1) or DsRed (marker for GLAST) puncta in each spinal cord dorsal horn, images using a fluorescence microscope were taken with a Q-Fire cooled camera (397 ms exposure). […] An observer blind to the treatment groups was used to count the relative number of GLT-1 or GLAST positive puncta in the ipsilateral (injured) dorsal horn versus the contralateral (non-injured) dorsal horn. […] For both reporters (GLT-1, green color; GLAST, red color), diffuse, cytoplasmic and punctate, perinuclear expression was observed that overlapped with GFAP (blue color) in some, but not all cases.
Transgenic mice on a C57B1/6 background were created according to the methods previously described (Regan et al. 2006. J. Neuroscience, in press). Briefly, in order to determine where in the central nervous system GLAST is expressed, transgenic mice were created using a bacterial artificial chromosome containing the GLAST gene plus 18 kb of DNA upstream of the first exon and 60 kb downstream of the last exon. DsRed cDNA was inserted into the first exon to allow expression of DsRed instead of GLAST when the promoter is active. […]
As described previously with rats, mice were transcardially perfused with 0.1 M PBS (phosphate-buffered saline), pH 7.4, followed by 4%-paraformaldehyde in PBS on day 12 post-L5 spinal nerve transection. […] The sections were examined with a fluorescence microscope, and images were captured with a Q-Fire cooled camera. […]

astrocytic activation = settings: DeLeo et al. 1987; cited from earlier work
[1] = L5/propentofylline group, day 12

For CCCn1cnc2c1c(=O)n(CCCCC(C)=O)c(=O)n2C [propentofylline], the “eGFP-GLT-1-positive puncta in injured mice, in words” value (GLT-1; [1]) was “reversed with propentofylline administration; also recorded: restored levels of eGFP-GLT-1-positive puncta to that of the contralateral side”, the “ipsilateral versus contralateral ratio of eGFP-GLT-1-positive puncta” value (GLT-1; [1]) was 1 and the “eGFP-GLT-1-positive puncta in sham mice” value (GLT-1; sham/propentofylline group) was “did not lead to further increases in GLT-1 above normal expression levels”. The astrocytic activation (astrocytic activation) was “attenuate astrocytic activation”.
